Experimental data: BindingDB's records for doi:10.7270/Q2S46Q8P (The Scripps Research Institute Molecular Screening Center, 2007)

Molecular target: T1, 5-hydroxytryptamine receptor 1A (Homo sapiens, UniProt P08908)
T1 sequence (P08908 whole entry): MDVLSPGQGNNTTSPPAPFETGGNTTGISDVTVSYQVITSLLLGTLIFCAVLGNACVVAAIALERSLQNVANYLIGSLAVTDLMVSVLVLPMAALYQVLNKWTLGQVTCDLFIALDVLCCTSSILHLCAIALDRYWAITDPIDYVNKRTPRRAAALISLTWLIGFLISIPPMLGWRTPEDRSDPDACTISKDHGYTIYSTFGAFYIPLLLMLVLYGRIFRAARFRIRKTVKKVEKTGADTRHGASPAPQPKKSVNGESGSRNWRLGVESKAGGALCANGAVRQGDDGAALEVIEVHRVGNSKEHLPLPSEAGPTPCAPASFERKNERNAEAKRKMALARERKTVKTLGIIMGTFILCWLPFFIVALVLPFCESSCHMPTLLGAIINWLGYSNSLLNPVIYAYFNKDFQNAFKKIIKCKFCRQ
Experiment: serotonin 1A receptor activation, dose response (AID 718)
Details: inactive by the depositor's call; pH 7.4; 23 °C

With CC(C)=CCC(C)(C)CNC(=O)NC1CCCCC1 as the molecule, how does the IC50 read?
Its IC50 is 40 µM.

For CCCOCCOC(=O)c1[nH]c2c(c1C)C(=O)CC(c1cc(OC)ccc1OC)C2 (configuration not stated), which IC50 is on record?
The IC50 was 40 µM.

For COc1cc2c(cc1OC)-c1cc(N3CCCc4ccccc43)nc(=O)n1CC2 [2-(3,4-dihydro-2H-quinolin-1-yl)-9,10-dimethoxy-6,7-dihydropyrimido[6,1-a]isoquinolin-4-one], which IC50 is on record?
Its IC50 is 25 µM.

With CCOc1ccc(C2=Nn3c(nnc3-c3ccccc3OC)SC2)cc1 [6-(4-ethoxyphenyl)-3-(2-methoxyphenyl)-7H-[1,2,4]triazolo[3,4-b][1,3,4]thiadiazine] as the molecule, how does the IC50 read?
The IC50 was 25 µM.

COC(=O)Nc1nc2ccc(Sc3ccccc3)cc2[nH]1 [FENBENDAZOLE] was tested. Which IC50 did it give?
Its IC50 is 40 µM.

Which IC50 does the source give for CCn1c(=O)c(C(=O)Nc2nc3ccccc3[nH]2)c(O)c2ccccc21 [MLS000027148] here?
Its IC50 is 40 µM.

With N#C/C(=C/c1ccc(N2CCCCCC2)o1)c1ccc(F)cc1 [MLS000051438] as the molecule, how does the IC50 read?
The IC50 was 10.9 µM.

CCOc1cccc(-c2nnc3n2N=C(c2cc(OC)ccc2OC)CS3)c1 [MLS000081451] was tested. Which IC50 did it give?
Its IC50 is 22.2 µM.

COCCOC(=O)c1[nH]c2c(c1C)C(=O)CC(c1ccccc1)C2 (configuration not stated) [SMR000025505] was tested. Which IC50 did it give?
Its IC50 is 40 µM.

How did the IC50 turn out when CCCOc1ccc2nc(NC(=O)OC)[nH]c2c1 [SMR000058208] was run?
Its IC50 is 40 µM.

How did the IC50 turn out when CN(C)c1nc(OCCNC(=O)COc2ccc(Cl)cc2Cl)nc(N2CCCCC2)n1 [SMR000072558] was run?
Its IC50 is 40 µM.

Which IC50 does the source give for COc1ccc(C2N(c3ccc(F)cc3)C(=O)C3CCCN32)cc1 (configuration not stated) [SMR000094164] here?
The IC50 was 40 µM.

Same assay, conditions: pH 7.4; 23 °C

How did the IC50 turn out when CCN(CC)c1ccc2c(Cl)c(Br)c(=O)oc2c1 was run?
Its IC50 is 2.3 µM.

With CCC(NC(=O)Nc1nnc(C(F)(F)F)s1)(C(F)(F)F)C(F)(F)F as the molecule, how does the IC50 read?
Its IC50 is 6.92 µM.

O=C(Nc1ccc(-c2nc3ncccc3o2)cc1)c1ccc(Br)o1 was tested. Which IC50 did it give?
Its IC50 is 8.32 µM.

O=S1(=O)C=C(Sc2nnc(-c3ccccc3)o2)c2ccccc21 was tested. Which IC50 did it give?
The IC50 was 2.48 µM.

How did the IC50 turn out when OCC12C=CC(O1)c1c2c(O)n(-c2ccc(-c3ccccc3)cc2)c1O (configuration not stated) was run?
The IC50 was 11.6 µM.

Which IC50 does the source give for CCn1nc(-c2ccccc2)nc2c(=O)n(C)c(=O)nc1-2 [1-Ethyl-6-methyl-3-phenyl-1H-pyrimido[5,4-e][1,2,4]triazine-5,7-dione] here?
Its IC50 is 0.581 µM.

Cn1c(-c2c(N)n(C3CCCC3)c3nc4ccccc4nc23)nc2ccccc21 [1-cyclopentyl-3-(1-methyl-2-benzimidazolyl)-2-pyrrolo[3,2-b]quinoxalinamine] was tested. Which IC50 did it give?
The IC50 was 2.38 µM.

How did the IC50 turn out when CCn1nc(-c2cccs2)nc2c(=O)n(C)c(=O)nc1-2 [1-ethyl-6-methyl-3-thiophen-2-yl-pyrimido[5,4-e][1,2,4]triazine-5,7-dione] was run?
The IC50 was 0.421 µM.

For COc1ccc(-n2nnnc2S(=O)(=O)CC(=O)N2CCCCC2)cc1 [2-[1-(4-methoxyphenyl)tetrazol-5-yl]sulfonyl-1-piperidin-1-ylethanone], which IC50 is on record?
The IC50 was 2.6 µM.

N#CCCS(=O)(=O)c1nnnn1-c1ccccc1 [3-(1-phenyltetrazol-5-yl)sulfonylpropanenitrile] was tested. Which IC50 did it give?
Its IC50 is 2.9 µM.

How did the IC50 turn out when COc1ccc(-c2cc(C(F)(F)F)nc(S(C)(=O)=O)n2)cc1OC [4-(3,4-dimethoxyphenyl)-2-methylsulfonyl-6-(trifluoromethyl)pyrimidine] was run?
The IC50 was 3.59 µM.

Which IC50 does the source give for COc1cccc(N2CCN(c3ncnc4c3[nH]c3ccccc34)CC2C)c1 (configuration not stated) [4-[4-(3-methoxyphenyl)-3-methyl-1-piperazinyl]-5H-pyrimido[5,4-b]indole] here?
Its IC50 is 3.31 µM.

Cc1ccc(S(=O)(=O)Nc2cccc3ncccc23)s1 [5-methyl-N-quinolin-5-ylthiophene-2-sulfonamide] was tested. Which IC50 did it give?
Its IC50 is 1.1 µM.

For Cc1ccc(-n2nc3c([n+]2[O-])CCc2c-3n[o+]n2[O-])cc1 [7-(4-methylphenyl)-3,6-dioxido-4,5-dihydrotriazolo[4,5-e][2,1,3]benzoxadiazole-3,6-diium], which IC50 is on record?
The IC50 was 3.26 µM.

With COc1cccc(N2CCN(c3ncnc4c3[nH]c3ccc(F)cc34)CC2C)c1 (configuration not stated) [8-fluoranyl-4-[4-(3-methoxyphenyl)-3-methyl-piperazin-1-yl]-5H-pyrimido[5,4-b]indole] as the molecule, how does the IC50 read?
Its IC50 is 0.866 µM.

COc1ccccc1-c1nnc2n1N=C(c1ccc(O)c(O)c1)CS2 [(4E)-4-[3-(2-methoxyphenyl)-5H-[1,2,4]triazolo[3,4-b][1,3,4]thiadiazin-6-ylidene]-2-oxidanyl-cyclohexa-2,5-dien-1-one] was tested. Which IC50 did it give?
Its IC50 is 40 µM.

Which IC50 does the source give for CC(=O)Nc1cc(OC(C)=O)c2nonc2c1OC(C)=O [Acetic acid 7-acetoxy-5-acetylamino-benzo[1,2,5]oxadiazol-4-yl ester] here?
Its IC50 is 1.78 µM.

CS(=O)(=O)c1nc(-c2ccccc2)cc(C(F)(F)F)n1 [MLS000044644] was tested. Which IC50 did it give?
Its IC50 is 2.28 µM.

CS(=O)(=O)c1nc(-c2cccs2)cc(C(F)(F)F)n1 [MLS000044645] was tested. Which IC50 did it give?
Its IC50 is 2.44 µM.

With CS(=O)(=O)c1nc(-c2ccco2)cc(C(F)(F)F)n1 [MLS000044646] as the molecule, how does the IC50 read?
Its IC50 is 3.3 µM.

Which IC50 does the source give for COc1ccc(-n2c(O)cc(NCc3ccncc3)c2O)cc1 [MLS000099014] here?
Its IC50 is 40 µM.

Which IC50 does the source give for CC(=O)Oc1ccc(-n2c(O)c3c(c2O)C2(C)C=CC3(C)O2)cc1 [MLS000107813] here?
Its IC50 is 7.33 µM.

O=C(Nc1ccc(N2CCOCC2)cc1)Nc1ccc2nc(-c3ccco3)c(-c3ccco3)nc2c1 [N-(2,3-di-2-furyl-6-quinoxalinyl)-N'-[4-(4-morpholinyl)phenyl]urea] was tested. Which IC50 did it give?
The IC50 was 2.29 µM.

COc1cccc(N2CCN(c3ncnc4c3cnn4-c3ccc(C)cc3C)CC2)c1 [SMR000017007] was tested. Which IC50 did it give?
Its IC50 is 4.78 µM.

Which IC50 does the source give for CCCc1nnc2n1N=C(c1ccc(OC)c(OC)c1)CS2 [SMR000057783] here?
The IC50 was 40 µM.

For Clc1ccc(-n2nnnc2Sc2ncnc3sccc23)cc1 [SMR000066808], which IC50 is on record?
The IC50 was 4.85 µM.

COc1cc(NS(=O)(=O)c2ccc(C)cc2)c2ncccc2c1 [SMR000071147] was tested. Which IC50 did it give?
Its IC50 is 0.823 µM.

How did the IC50 turn out when COc1cc2c(cc1OC)C1=C(C#N)CC=C(NS(=O)(=O)c3ccccc3)N1CC2 [SMR000092093] was run?
Its IC50 is 40 µM.

For CSc1ccccc1NC=C1C(=O)CC(C)(C)CC1=O [SMR000111352], which IC50 is on record?
Its IC50 is 1.88 µM.

With COC(=O)/C(=C1/Oc2cc(C)oc(=O)c2S1)C(F)(F)F [methyl (2E)-3,3,3-tris(fluoranyl)-2-(6-methyl-4-oxidanylidene-[1,3]oxathiolo[4,5-c]pyran-2-ylidene)propanoate] as the molecule, how does the IC50 read?
Its IC50 is 1.24 µM.
